# ChEMBL document CHEMBL1201862, “PubChem BioAssay data set” (2004)
# The source made the active and inactive calls.
# What was measured:
# [1] = target: T1, Ubiquitin-conjugating enzyme E2 N (Homo sapiens, UniProt P61088); assay type: functional;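 note: Dose-response confirmation in a TR-FRET assay detecting UBC13-driven polyubiquitin chain formation, inhibition measured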
# T1 sequence (P61088 whole entry): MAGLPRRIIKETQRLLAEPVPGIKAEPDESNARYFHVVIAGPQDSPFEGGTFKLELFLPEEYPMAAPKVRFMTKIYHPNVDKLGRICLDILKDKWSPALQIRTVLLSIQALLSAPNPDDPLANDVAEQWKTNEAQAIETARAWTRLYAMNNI
# [2] = target: T2, Corticotropin-releasing factor receptor 2/Corticotropin-releasing factor-binding protein (Homo sapiens, UniProt P24387+Q13324); experiment: Dose Response confirmation of uHTS hits for small molecule antagonists of the CRF-binding protein and CRF-R2 receptor complex.; assay type: functional; details: read-out: IC50_Mean
# T2 sequence (Q13324 whole entry): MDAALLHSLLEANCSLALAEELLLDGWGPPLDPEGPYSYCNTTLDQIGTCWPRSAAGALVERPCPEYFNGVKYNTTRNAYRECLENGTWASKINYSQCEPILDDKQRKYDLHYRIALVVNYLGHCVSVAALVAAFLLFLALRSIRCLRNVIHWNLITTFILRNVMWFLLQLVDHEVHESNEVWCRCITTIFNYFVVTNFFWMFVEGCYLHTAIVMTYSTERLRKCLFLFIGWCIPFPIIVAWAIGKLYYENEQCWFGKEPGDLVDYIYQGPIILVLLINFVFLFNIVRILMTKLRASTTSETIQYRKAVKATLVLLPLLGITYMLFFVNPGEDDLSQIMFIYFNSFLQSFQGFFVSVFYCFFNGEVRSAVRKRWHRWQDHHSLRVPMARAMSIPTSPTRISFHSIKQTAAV
# T2 sequence (P24387 whole entry): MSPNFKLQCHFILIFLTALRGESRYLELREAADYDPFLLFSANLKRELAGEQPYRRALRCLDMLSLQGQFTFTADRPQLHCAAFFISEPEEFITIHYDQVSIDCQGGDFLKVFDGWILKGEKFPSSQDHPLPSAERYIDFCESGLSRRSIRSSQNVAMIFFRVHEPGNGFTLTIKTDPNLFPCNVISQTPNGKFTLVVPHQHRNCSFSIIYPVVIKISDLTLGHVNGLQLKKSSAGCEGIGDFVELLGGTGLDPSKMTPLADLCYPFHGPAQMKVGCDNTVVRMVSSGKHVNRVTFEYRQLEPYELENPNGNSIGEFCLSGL
# [3] = target: T2, Corticotropin-releasing factor receptor 2/Corticotropin-releasing factor-binding protein; experiment: activators of CRF receptor 2 with binding protein – uHTS hits, confirmation (AID 602473); assay type: functional; details: read-out: EC50_Mean
# [4] = target: T3, Calpain-2 catalytic subunit (Sus scrofa, UniProt P43367); experiment: m-calpain protease blockers, concentration series – biochemical, fluorogenic peptide substrate, dose response (AID 1420); assay type: functional
# T3 sequence (P43367 whole entry): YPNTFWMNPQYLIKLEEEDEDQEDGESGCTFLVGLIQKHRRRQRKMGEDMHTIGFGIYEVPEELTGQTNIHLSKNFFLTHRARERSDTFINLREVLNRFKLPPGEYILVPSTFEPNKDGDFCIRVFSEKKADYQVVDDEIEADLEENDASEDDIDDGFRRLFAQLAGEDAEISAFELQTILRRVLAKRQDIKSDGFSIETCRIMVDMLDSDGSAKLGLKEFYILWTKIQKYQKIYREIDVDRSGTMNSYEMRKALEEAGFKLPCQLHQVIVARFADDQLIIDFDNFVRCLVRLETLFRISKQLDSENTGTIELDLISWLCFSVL
# [5] = Trypanosoma cruzi growth suppression in host cells – NIH3T3 host cells, beta-gal luminescence, confirmation (AID 2044); assay type: functional, cell-based;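 note: intracellular parasites grown in NIH/3T3 mouse fibroblasts as host cells; luminescent beta-galactosidase reporter signal from transgenic T. cruzi replicating inside host cells; inhibitors lower the luminescence signal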
# [6] = NIH3T3 cell viability loss – ATP luminescence, mouse fibroblasts, counter-screen, dose response (AID 2010); assay type: functional, cell-based;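 note: cells exposed to compound for about 90 hours before reading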
# [7] = Luminescence Cell-Based Dose Retest to Confirm Inhibitors of Cancer Stem Cells. [Related pubchem assays (depositor defined):AID2717, AID2721]; assay type: functional; details: Homo sapiens
# [8] = viability of uninfected HEp-2 cells – cell-based, HTS, cytotoxicity control for RSV inhibitor project, dose response (AID 2410); assay type: functional; details: human respiratory syncytial virus
# Cytochrome P450 3A4 = Cytochrome P450 3A4 (Homo sapiens, UniProt P08684);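 note: CYP3A4 tested as one member of a cytochrome P450 panel screen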
# Leucine aminopeptidase = target: T4, Leucine aminopeptidase (Plasmodium falciparum 3D7, UniProt Q8IL11); experiment: P. falciparum M17LAP inhibitors, primary screen, biochemical, fluorogenic H-Leu-NHMec substrate, 1536-well (AID 1619); assay type: functional
# T4 sequence (Q8IL11 whole entry): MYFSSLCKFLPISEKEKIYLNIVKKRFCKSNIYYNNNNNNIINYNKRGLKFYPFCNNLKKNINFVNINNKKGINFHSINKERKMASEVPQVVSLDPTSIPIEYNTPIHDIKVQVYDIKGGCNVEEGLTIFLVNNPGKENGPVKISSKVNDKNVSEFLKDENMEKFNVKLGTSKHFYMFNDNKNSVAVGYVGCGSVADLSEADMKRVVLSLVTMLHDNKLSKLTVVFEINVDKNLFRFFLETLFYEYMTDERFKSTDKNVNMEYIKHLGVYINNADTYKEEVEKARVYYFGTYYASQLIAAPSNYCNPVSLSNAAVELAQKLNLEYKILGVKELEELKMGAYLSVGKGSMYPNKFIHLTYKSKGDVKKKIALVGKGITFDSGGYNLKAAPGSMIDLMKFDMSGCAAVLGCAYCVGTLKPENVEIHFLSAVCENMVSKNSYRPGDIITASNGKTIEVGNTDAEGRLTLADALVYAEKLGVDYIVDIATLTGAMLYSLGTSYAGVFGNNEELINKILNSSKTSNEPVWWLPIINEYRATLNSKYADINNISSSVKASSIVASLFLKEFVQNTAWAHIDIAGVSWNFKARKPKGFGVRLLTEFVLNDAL
# [9] = microbe, parasite or virus in culture; assay type: functional; details: Mycobacterium tuberculosis
# cells [10] = assay type: functional, cell-based
# cells [11] = assay type: functional, cell-based; remark: listed apart in the source
# cells [12] = assay type: functional
# [13] = reduction of Shn3 3'UTR-driven luciferase in osteoblasts – cell-based, Clone20 osteoblasts, firefly luciferase, cherry-picked, dose response (AID 624132); assay type: functional;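 note: firefly luciferase luminescence from reporter carrying the Shn3 3'UTR in osteoblasts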
# [14] = non-specific 3'UTR reporter inhibition in Clone20-Shn3RL – cell-based, Renilla luciferase, cherry-picked, counter-screen for Shn3 inhibitor project, dose response (AID 624133); assay type: functional
# [15] = target: T5, Replicative DNA helicase DnaB (Mycobacterium tuberculosis, UniProt P9WMR3); experiment: DnaB intein splicing inhibitors, dose response, biochemical, cell-free fluorescence (AID 449749); assay type: functional
# T5 sequence (P9WMR3 whole entry): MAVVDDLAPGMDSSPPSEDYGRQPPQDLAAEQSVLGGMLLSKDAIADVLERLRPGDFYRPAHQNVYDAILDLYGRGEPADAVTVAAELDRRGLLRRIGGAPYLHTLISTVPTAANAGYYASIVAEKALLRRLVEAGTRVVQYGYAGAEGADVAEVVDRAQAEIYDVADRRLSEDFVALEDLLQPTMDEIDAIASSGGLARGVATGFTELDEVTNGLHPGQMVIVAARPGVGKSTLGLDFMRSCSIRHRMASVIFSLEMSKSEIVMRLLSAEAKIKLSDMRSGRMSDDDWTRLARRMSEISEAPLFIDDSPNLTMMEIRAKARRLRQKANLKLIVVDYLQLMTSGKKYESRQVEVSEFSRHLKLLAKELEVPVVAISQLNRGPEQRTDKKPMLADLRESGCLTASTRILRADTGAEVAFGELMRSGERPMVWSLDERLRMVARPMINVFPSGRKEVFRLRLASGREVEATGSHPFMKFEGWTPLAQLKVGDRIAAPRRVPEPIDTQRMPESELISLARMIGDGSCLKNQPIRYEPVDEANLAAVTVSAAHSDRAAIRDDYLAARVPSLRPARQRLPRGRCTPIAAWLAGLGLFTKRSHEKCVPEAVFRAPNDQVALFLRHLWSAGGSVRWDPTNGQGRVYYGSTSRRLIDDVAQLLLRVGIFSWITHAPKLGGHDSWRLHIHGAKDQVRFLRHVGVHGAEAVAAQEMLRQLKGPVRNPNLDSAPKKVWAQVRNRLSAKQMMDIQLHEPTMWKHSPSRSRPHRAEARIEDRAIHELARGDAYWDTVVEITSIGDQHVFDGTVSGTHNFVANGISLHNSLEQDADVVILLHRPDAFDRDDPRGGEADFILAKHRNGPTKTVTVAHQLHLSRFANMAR
# Sequence of Cytochrome P450 3A4 (P08684 whole entry): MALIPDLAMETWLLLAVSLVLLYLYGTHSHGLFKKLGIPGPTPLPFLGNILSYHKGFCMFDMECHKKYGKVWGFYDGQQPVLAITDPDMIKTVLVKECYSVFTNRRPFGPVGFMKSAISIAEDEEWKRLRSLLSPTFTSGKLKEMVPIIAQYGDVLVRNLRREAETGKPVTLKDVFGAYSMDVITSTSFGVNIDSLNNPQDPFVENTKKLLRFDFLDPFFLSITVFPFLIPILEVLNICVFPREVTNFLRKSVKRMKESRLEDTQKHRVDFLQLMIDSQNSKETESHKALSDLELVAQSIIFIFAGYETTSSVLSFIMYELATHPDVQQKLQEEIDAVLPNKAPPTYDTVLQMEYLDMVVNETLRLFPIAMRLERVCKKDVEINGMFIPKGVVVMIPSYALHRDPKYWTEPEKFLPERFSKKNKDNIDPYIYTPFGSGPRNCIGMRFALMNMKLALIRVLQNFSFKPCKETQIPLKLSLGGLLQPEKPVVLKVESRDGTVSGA
structure (smiles),measurement,setting,value
CC(C)COCC(CN(Cc1ccccc1)c1ccccc1)N1CCCC1 (stereo unspecified),IC50,[1],> 20 µM (inactive)
CCN(CC)CCN/C(C)=C1\C(=O)NC(=O)N(c2ccccc2OC)C1=O,IC50,[2],> 47.1 µM (inactive)
same,EC50,[3],> 53 µM (inactive)
CCCCN(CC)S(=O)(=O)c1ccc(C(=O)N(CCCN(C)C)c2nc3cc(C)cc(C)c3s2)cc1,IC50,[4],8.03 µM (not active)
same,EC50,[5],227 nM (active)
same,IC50,[1],> 20 µM (inactive)
same,EC50,[6],9.54 µM (active)
same,AC50,[7],6.96 µM (active)
same,CC50,[8],14.9 µM (active)
Cc1ccc(S(=O)(=O)NC(=O)CSc2nc3ccccc3s2)cc1,AC50,Cytochrome P450 3A4,14.1 µM (inconclusive)
same,IC50,Leucine aminopeptidase,7.77 µM (active)
O=C(Nc1ccc(C(=O)O)cc1)Nc1cccc([N+](=O)[O-])c1,IC50,Leucine aminopeptidase,16.1 µM (active)
Cc1ccc2[nH]c(=O)c(=NNc3ccccc3)cnc2c1,CC50,[9],> 40 µM (active)
CCC(=O)n1nc(NCc2ccc(OC)c(OC)c2)nc1NCc1ccc(OC)c(OC)c1,EC50,cells [10],> 350 µM (not active)
same,EC50,cells [11],> 350 µM (not active)
Cn1c(SCC(=O)c2ccccc2)nnc1-c1ccco1,EC50,cells [10],57.5 µM (active)
same,EC50,cells [11],> 350 µM (not active)
CC(C)Cn1nc2c3c(ccc2c1O)C(=O)c1ccccc1C3=O,CC50,[9],16.4 µM (active)
C=CCn1c(SCC(=O)c2ccc(NS(=O)(=O)c3ccccc3)cc2)nnc1-c1cccs1,IC50,Leucine aminopeptidase,14.7 µM (active)
O=C(CSc1nc[nH]n1)N1N=C2/C(=C/c3ccco3)CCCC2C1c1ccco1 (stereo unspecified),IC50,Leucine aminopeptidase,2.11 µM (active)
COc1ccccc1NC(=O)CSc1nc[nH]n1,IC50,Leucine aminopeptidase,36.8 µM (active)
N#Cc1ccc(COC(=O)CCc2c[nH]c3ccccc23)cc1,IC50,cells [12],1.68 µM (active)
CSc1ccc(C(=O)C2CCCN(Cc3cc4ccccc4[nH]3)C2)cc1 (stereo unspecified),IC50,cells [12],13.2 µM (active)
COc1ccc(-c2noc(CCC(=O)NCC3CCN(Cc4cccc(C)c4)CC3)n2)cc1,IC50,[1],> 20 µM (inactive)
Cc1ccc(OCCCCNC2CCCC(C)C2C)c(C)c1 (stereo unspecified),EC50,[5],778 nM (active)
same,CC50,[9],> 40 µM (active)
same,EC50,[6],> 60 µM (not active)
OC(CN1C2=NCCN2c2ccccc21)c1ccc2c(c1)OCO2 (stereo unspecified),IC50,[2],> 47.1 µM (inactive)
same,EC50,[3],> 53 µM (inactive)
CCOc1ccc(NC(=O)C2CC(C)=C(C)CC2C(=O)O)cc1 (stereo unspecified),IC50,Leucine aminopeptidase,21.3 µM (active)
CCCn1c(=N)c(C(=O)NCc2ccc3c(c2)OCO3)cc2c(=O)n3cccc(C)c3nc21,EC50,[5],1670 nM (active)
same,CC50,[9],33.9 µM (active)
same,EC50,[6],> 30 µM (not active)
FC(F)(F)c1ccc2c(c1)NP(=S)(N1CCOCC1)c1nccn1-2 (stereo unspecified),EC50,cells [10],> 350 µM (not active)
same,EC50,cells [11],> 350 µM (not active)
CCCOC(=O)NC1C(NC(=O)OCCC)N(C)C(=O)N1C (stereo unspecified),EC50,cells [10],> 350 µM (not active)
same,EC50,cells [11],> 350 µM (not active)
COC(=O)CN1C(=O)COc2ccc(S(=O)(=O)NCc3ccc(Cl)cc3)cc21,IC50,[2],> 47.1 µM (inactive)
same,EC50,[3],> 53 µM (inactive)
CC(=O)c1cccc(NC(=O)CN(C)S(=O)(=O)c2cccc3nsnc23)c1,EC50,cells [10],> 350 µM (not active)
same,EC50,cells [11],> 350 µM (not active)
CN(C(=O)COC(=O)c1ccc(F)c(S(=O)(=O)N2CCOCC2)c1)C1CCS(=O)(=O)C1 (stereo unspecified),EC50,cells [10],> 350 µM (not active)
same,EC50,cells [11],> 350 µM (not active)
O=C(NCCc1c[nH]c2ccccc12)OCCSS(=O)(=O)O,IC50,Leucine aminopeptidase,21.8 µM (active)
CCCC(=O)NC(=S)Nc1ccc(N2CCN(C(=O)c3cccs3)CC2)cc1,AC50,[13],10.1 µM (active)
same,AC50,[14],10.7 µM (active)
COc1ccc(NC(=O)CN2C(=O)C(C)SC(C)C2=O)cc1 (stereo unspecified),IC50,Leucine aminopeptidase,12.2 µM (active)
CC(=O)N1CCN(S(=O)(=O)c2cccc(C(=O)NCc3ccc(F)cc3)c2)CC1,IC50,[2],> 47.1 µM (inactive)
same,EC50,[3],> 53 µM (inactive)
COc1ccc(CCNC(=O)c2cccn2C)cc1,IC50,[2],> 47.1 µM (inactive)
same,EC50,[3],> 53 µM (inactive)
COc1ccccc1NC(=O)C1=C(C)Nc2nnnn2C1c1ccncc1 (stereo unspecified),AC50,[15],21.2 µM (inconclusive)
Cc1ccc(NC(=O)CCn2cc(C(F)(F)F)ccc2=O)cc1,IC50,[2],> 47.1 µM (inactive)
same,EC50,[3],> 53 µM (inactive)
COc1ccc(/C=N/NS(=O)(=O)c2ccccc2)cc1OC(=O)c1ccc(C)cc1,IC50,[2],> 47.1 µM (inactive)
same,EC50,[3],> 53 µM (inactive)
